Columns and labels:
[1] = molecular target: T1, MAGL (Mus musculus, UniProt O35678); experiment: biochemical; conditions: mouse; in vitro competitive ABPP; read-out: Mouse (IC50 value, nM) MAGL
T1 sequence (O35678 1-303): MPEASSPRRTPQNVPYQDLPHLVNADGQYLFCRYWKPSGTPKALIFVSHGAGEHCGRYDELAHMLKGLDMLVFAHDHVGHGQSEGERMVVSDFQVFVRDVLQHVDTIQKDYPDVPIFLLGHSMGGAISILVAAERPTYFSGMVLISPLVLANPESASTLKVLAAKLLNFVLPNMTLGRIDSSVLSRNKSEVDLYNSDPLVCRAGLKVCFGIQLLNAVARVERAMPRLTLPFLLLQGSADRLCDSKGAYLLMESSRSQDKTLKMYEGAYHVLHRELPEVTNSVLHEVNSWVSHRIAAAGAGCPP

[2] = molecular target: T2, Mouse brain MAGL (Mus musculus, UniProt O35678); experiment: Mouse brain proteomes from inhibitor treated mice (oral gavage, ABPP analysis); format: in vivo; conditions: p.o., sacrificed 4 h following administration
T2 construct: from tissue; host or cells: brain of wild-type C57Bl/6J mice dosed by oral gavage
T2 sequence (O35678 1-303): T1 sequence (O35678 1-303)
Procedure: After 30 min, FP—Rh (1.0 μL, 50 μM in DMSO) was added and the mixture was incubated for another 30 min at 37° C. Reactions were quenched with SDS loading buffer (50 μL-4×) and run on SDS-PAGE. Following gel imaging, serine hydrolase activity was determined by measuring fluorescent intensity of gel bands corresponding to MAGL, ABHD6 and FAAH using ImageJ 1.43 u software.
Inhibitors were administered to wild-type C57Bl/6J by oral gavage in a vehicle of polyethylene glycol. Each animal was sacrificed 4 h following administration and brain proteomes were prepared and analyzed according to previously established methods (See Niphakis, M. J., et al. (2011) ACS Chem. Neurosci. and Long, J. Z., et al. Nat. Chem. Biol. 5:37-44).

[3] = molecular target: T3, FAAH (Mus musculus, UniProt O08914); experiment: biochemical; conditions: in vitro competitive ABPP
T3 sequence (O08914 1-579): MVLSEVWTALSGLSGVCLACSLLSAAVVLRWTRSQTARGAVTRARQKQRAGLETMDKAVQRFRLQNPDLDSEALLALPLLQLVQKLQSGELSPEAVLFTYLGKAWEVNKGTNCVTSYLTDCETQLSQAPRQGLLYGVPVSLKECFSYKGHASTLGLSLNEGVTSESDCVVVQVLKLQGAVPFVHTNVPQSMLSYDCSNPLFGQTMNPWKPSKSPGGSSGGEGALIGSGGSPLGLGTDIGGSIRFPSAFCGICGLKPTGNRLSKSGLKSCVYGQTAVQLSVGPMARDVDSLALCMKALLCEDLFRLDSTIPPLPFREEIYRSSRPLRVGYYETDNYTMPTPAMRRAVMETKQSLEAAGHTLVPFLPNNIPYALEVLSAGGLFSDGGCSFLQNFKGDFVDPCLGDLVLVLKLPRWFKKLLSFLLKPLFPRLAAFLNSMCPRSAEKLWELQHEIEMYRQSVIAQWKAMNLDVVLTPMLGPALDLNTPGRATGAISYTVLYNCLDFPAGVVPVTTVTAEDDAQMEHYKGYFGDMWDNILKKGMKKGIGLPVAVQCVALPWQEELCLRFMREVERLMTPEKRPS

[4] = molecular target: T4, ABHD6 (Mus musculus, UniProt Q8R2Y0); experiment: In vitro competitive activity-based protein profiling (Table 2, % inhibition at 1 μM); format: biochemical; conditions: read-out: % Inhibition at 1 μM ABHD6
T4 sequence (Q8R2Y0 1-336): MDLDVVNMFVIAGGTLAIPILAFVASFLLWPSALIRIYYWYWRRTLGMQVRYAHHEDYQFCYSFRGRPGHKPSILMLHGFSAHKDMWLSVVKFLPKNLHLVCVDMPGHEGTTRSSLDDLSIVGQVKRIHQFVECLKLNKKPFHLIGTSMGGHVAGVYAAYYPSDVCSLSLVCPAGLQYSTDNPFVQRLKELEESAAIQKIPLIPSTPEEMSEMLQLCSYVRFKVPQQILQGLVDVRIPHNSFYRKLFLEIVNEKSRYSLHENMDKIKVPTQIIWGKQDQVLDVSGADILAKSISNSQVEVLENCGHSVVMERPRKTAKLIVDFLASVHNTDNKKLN

[5] = molecular target: T3, FAAH; experiment: as above; format: biochemical; conditions: read-out: % Inhibition at 1 μM FAAH
[6] = molecular target: T4, ABHD6; experiment: biochemical; conditions: in vitro competitive ABPP
[7] = molecular target: T1, MAGL; experiment: In vitro competitive activity-based protein profiling (Table 2, % inhibition at 1 μM); format: biochemical; conditions: read-out: % Inhibition at 1 μM MAGL
Procedure: After 30 min, FP—Rh (1.0 μL, 50 μM in DMSO) was added and the mixture was incubated for another 30 min at 37° C. Reactions were quenched with SDS loading buffer (50 μL-4×) and run on SDS-PAGE.
Cell lysates were diluted with mock proteomes for use in competitive ABPP experiments.

SMILES	IC50 [1]	inhibition at 5 mg/kg [2]	IC50 [3]	inhibition at 1 µM [4]	inhibition at 1 µM [5]	IC50 [6]	inhibition at 1 µM [7]
Cn1cc(CN2CC3CN(C(=O)OC(C(F)(F)F)C(F)(F)F)CC3C2)c(-c2ccccc2)n1 (stereo not drawn) [Example 50, 1,1,1,3,3,3-Hexafluoropropan-2-yl 5-((1-methyl-3-phenyl-1H-pyrazol-4-yl)methyl)hexahydropyrrolo[3,4-c]pyrrole-2(1H)-carboxylate]	< 100 nM	25 to 75%	1000 to 10000 nM	25 to 75%	< 25%	1000 to 10000 nM	> 75%
CCn1cc(CN2CC3CN(C(=O)OC(C(F)(F)F)C(F)(F)F)CC3C2)c(-c2cccc(N3CCOCC3)c2)n1 (stereo not drawn) [Example 65, 1,1,1,3,3,3-Hexafluoropropan-2-yl 5-([1-ethyl-3-[3-(morpholin-4-yl)phenyl]-1H-pyrazol-4-yl]methyl)-octahydropyrrolo[3,4-c]pyrrole-2-carboxylate]	< 100 nM	≤ 25%	1000 to 10000 nM	< 25%	< 25%	1000 to 10000 nM	> 75%
CC(C)n1cc(CN2CC3CN(C(=O)OC(C(F)(F)F)C(F)(F)F)CC3C2)c(-c2ccccc2Cl)n1 (stereo not drawn) [Example 54, 1,1,1,3,3,3-Hexafluoropropan-2-yl 5-[[3-(2-chlorophenyl)-1-(propan-2-yl)-1H-pyrazol-4-yl]methyl]-octahydropyrrolo[3,4-c]pyrrole-2-carboxylate]	< 100 nM	25 to 75%	> 10000 nM	25 to 75%	< 25%	100 to 1000 nM	> 75%
CC(=O)N1CCN(c2cc(C(C)C)ccc2CN2CC3CN(C(=O)OC(C(F)(F)F)C(F)(F)F)CC3C2)CC1 (stereo not drawn) [Example 24, 1,1,1,3,3,3-Hexafluoropropan-2-yl 5-[[2-(4-acetylpiperazin-1-yl)-4-(propan-2-yl)phenyl]methyl]-octahydropyrrolo[3,4-c]pyrrole-2-carboxylate]	< 100 nM	≤ 25%	> 10000 nM	25 to 75%	< 25%	1000 to 10000 nM	> 75%
CCn1cc(CN2CC3CN(C(=O)OC(C(F)(F)F)C(F)(F)F)CC3C2)c(-c2cccc(N3CCC3)c2)n1 (stereo not drawn) [Example 66, 1,1,1,3,3,3-Hexafluoropropan-2-yl 5-([3-[3-(azetidin-1-yl)phenyl]-1-ethyl-1H-pyrazol-4-yl]methyl)-octahydropyrrolo[3,4-c]pyrrole-2-carboxylate]	< 100 nM	≤ 25%	1000 to 10000 nM	25 to 75%	< 25%	1000 to 10000 nM	> 75%
Cc1c(CN2CC3CN(C(=O)OC(C(F)(F)F)C(F)(F)F)CC3C2)cccc1N1C2CCC1COC2 (stereo not drawn) [Example 127, 1,1,1,3,3,3-hexafluoropropan-2-yl 5-[(2-methyl-3-[3-oxa-8-azabicyclo[3.2.1]octan-8-yl]phenyl)methyl]-octahydropyrrolo[3,4-c]pyrrole-2-carboxylate]	< 100 nM	25 to 75%	1000 to 10000 nM	25 to 75%	< 25%	1000 to 10000 nM	> 75%
O=C(OC(C(F)(F)F)C(F)(F)F)N1CC2CN(Cc3cccc(N4CCC5(CCOC5)C4)c3Cl)CC2C1 (stereo not drawn) [Example 48, 1,1,1,3,3,3-Hexafluoropropan-2-yl 5-[(2-chloro-3-[2-oxa-7-azaspiro[4.4]nonan-7-yl]phenyl)methyl]-octahydropyrrolo[3,4-c]pyrrole-2-carboxylate]	< 100 nM		1000 to 10000 nM	< 25%	25 to 75%	1000 to 10000 nM	> 75%
O=C(ON1C(=O)CCC1=O)N1CC2CN(Cc3ccc(N4CCOCC4)cc3OC(F)(F)F)CC2C1 (stereo not drawn) [Example 86, 2,5-Dioxopyrrolidin-1-yl 5-[[4-(morpholin-4-yl)-2-(trifluoromethoxy)phenyl]methyl]-octahydropyrrolo[3,4-c]pyrrole-2-carboxylate]	100 to 1000 nM		1000 to 10000 nM	< 25%	25 to 75%	1000 to 10000 nM	> 75%
O=C(ON1C(=O)CCC1=O)N1CC2CN(Cc3cccc(-c4ccccc4)c3)CC2C1 (stereo not drawn) [Example 88, 2,5-Dioxopyrrolidin-1-yl 5-[(3-phenylphenyl)methyl]-octahydropyrrolo[3,4-c]pyrrole-2-carboxylate]	< 100 nM		100 to 1000 nM	25 to 75%	> 75%	1000 to 10000 nM	> 75%
O=C(OC(C(F)(F)F)C(F)(F)F)N1CC2CN(Cc3ccc(N4CCOCC4)cc3OC(F)(F)F)CC2C1 (stereo not drawn) [Example 11, 1,1,1,3,3,3-Hexafluoropropan-2-yl 5-[[4-(morpholin-4-yl)-2-(trifluoromethoxy)phenyl]methyl]-octahydropyrrolo[3,4-c]pyrrole-2-carboxylate]	< 100 nM		100 to 1000 nM	< 25%	> 75%	100 to 1000 nM	> 75%
O=C(OC(C(F)(F)F)C(F)(F)F)N1CC2CN(Cc3cc(CN4CCCC4)ccc3OC(F)(F)F)CC2C1 (stereo not drawn) [Example 190, 1,1,1,3,3,3-hexafluoropropan-2-yl 5-(5-(pyrrolidin-1-ylmethyl)-2-(trifluoromethoxy)benzyl)hexahydropyrrolo[3,4-c]pyrrole-2(1H)-carboxylate]	100 to 1000 nM		1000 to 10000 nM	< 25%	< 25%	1000 to 10000 nM	> 75%
CC1COCCN1c1ccc(CN2CC3CN(C(=O)OC(C(F)(F)F)C(F)(F)F)CC3C2)c(F)c1 (stereo not drawn) [Example 25, 1,1,1,3,3,3-Hexafluoropropan-2-yl 5-[[2-fluoro-4-(3-methylmorpholin-4-yl)phenyl]methyl]-octahydropyrrolo[3,4-c]pyrrole-2-carboxylate]	< 100 nM		1000 to 10000 nM	25 to 75%	25 to 75%	1000 to 10000 nM	> 75%
Cc1c(CN2CC3CN(C(=O)OC(C(F)(F)F)C(F)(F)F)CC3C2)cccc1C(=O)N1CCCCC1 (stereo not drawn) [Example 187, 1,1,1,3,3,3-hexafluoropropan-2-yl 5-(2-methyl-3-(piperidine-1-carbonyl)benzyl)hexahydropyrrolo[3,4-c]pyrrole-2(1H)-carboxylate]	< 100 nM		1000 to 10000 nM	25 to 75%	< 25%	1000 to 10000 nM	> 75%

— patent US9828379B2 (priority 2013, dated 2017)
